Results as given in patent publication US7495104B2, “Quinoline or quinazoline derivatives inhibiting auto-phosphorylation of fibroblast growth factor receptors” (Kirin Beer Kabushiki Kaisha, priority 2001, dated 2009).

target: Bek (Homo sapiens, UniProt P21802); assay: Inhibitory activity against Bek-autophosphorylation using ELISA method in OCUM-2MD3 cells; assay type: cell-based; conditions: 1 hr with compound, read-out: IC50 (concentration necessary for inhibiting 50% of Bek-phosphorylation)
Procedure: Human scirrhus stomach cancer cells OCUM-2MD3 (kindly provided by Dr. Kosei Hirakawa, Osaka City University) were cultured in an RPMI medium containing 10% fetal calf serum (purchased from ICN) within a 5% carbon dioxide incubator until 50 to 90% confluent. The harvested cells were seeded onto 96-well flat-bottom plate in RPMI containing 0.1% fetal calf serum at 3.5×10^4 cells per well, followed by cultivation at 37° C. overnight. A solution of the test compound in dimethyl sulfoxide was added to each well, and the cultivation was continued at 37° C. for additional one hr. The medium was removed, and 50 μl of lysis buffer (20 mM HEPES (pH 7.4), 150 mM NaCl, 0.2% Triton X-100, 10% glycerol, 5 mM sodium orthovanadylate, 5 mM disodium ethylenediaminetetraacetate, and 2 mM Na4P2O7) was then added thereto. The mixture was shaken at 4° C. for 2 hr to prepare cell extracts.
Separately, phosphate buffered saline (50 μl, pH 7.4) containing 5 μg/ml of anti-phospho-tyrosine antibody (PY20; purchased from Transduction Laboratories) was added to a microplate for ELISA (Maxisorp; purchased from NUNC), followed by standing at 4° C. overnight to form a solid phase on the wells. After washing of the plate, 300 μl of a blocking solution was added, followed by standing at room temperature for 2 hr to perform blocking. After washing, the whole quantity of the cell extracts was transferred to the wells, and the plate was then allowed to stand at 4° C. overnight. After washing, an anti-Bek antibody (Bek (C-17), purchased from Santa Cruz Biotechnology) or Anti-Human K-sam Rabbit IgG Affinity Purity (purchased from IBL Co., Ltd.) was allowed to react at room temperature for one hr, and, after washing, a peroxidase-labeled anti-rabbit Ig antibody (purchased from Amersham) was allowed to react at room temperature for one hr. After washing, a chromophoric substrate for peroxidase (purchased from Sumitomo Bakelite Co., Ltd.) was added thereto to initiate a reaction. After a suitable level of color development, a reaction termination solution was added to stop the reaction, and the absorbance at 450 nm was measured with a microplate reader. The Bek-phosphorylation activity for each well was determined by presuming the absorbance without the addition of the medicament to be 100% Bek-phosphorylation activity and the absorbance with the addition of a large excess of a positive control (N-{4-[(6,7-dimethoxy-4-quinolyl)oxy]phenyl}-N′-(3,3-dimethylbutyl)urea, 1000 nM) to be 0% Bek-phosphorylation activity. The concentration of the test compound was varied on several levels, the Bek-phosphorylation inhibitory activity was determined for each case, and the concentration of the test compound necessary for inhibiting 50% of Bek-phosphorylation (IC50) was calculated.

Bek, sequence (P21802 431-767 limits assumed): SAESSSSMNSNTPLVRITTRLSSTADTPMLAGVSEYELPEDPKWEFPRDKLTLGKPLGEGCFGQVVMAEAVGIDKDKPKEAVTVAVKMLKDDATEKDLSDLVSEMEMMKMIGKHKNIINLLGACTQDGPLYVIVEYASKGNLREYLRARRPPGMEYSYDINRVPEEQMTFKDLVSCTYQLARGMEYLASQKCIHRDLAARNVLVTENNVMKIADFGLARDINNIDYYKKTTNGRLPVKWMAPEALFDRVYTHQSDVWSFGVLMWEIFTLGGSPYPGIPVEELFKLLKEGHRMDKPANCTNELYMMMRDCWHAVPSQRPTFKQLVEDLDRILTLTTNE

Row | SMILES | IC50
1 | COc1cc2c(Oc3ccc(NC(=O)NCCC(C)(C)C)c(Cl)c3)ccnc2cc1OCCCN1CCCC1 [Compound 179, 1-{2-Chloro-4-[6-methoxy-7-(3-pyrrolidin-1-yl-propoxy)-quinolin-4-yloxy]-phenyl}-3-(3,3-dimethyl-butyl)-urea] | 0.0173 µM
2 | COc1cc2c(Oc3ccc(Nc4ccc(C(C)(C)C)cc4)cc3)ccnc2cc1OCC(O)CN1CCCC1 (stereo not drawn) [Compound 61, 1-{4-[4-(4-Tert-butyl-phenylamino)phenoxy]-6-methoxyquinolin-7-yloxy}-3-pyrrolidin-1-ylpropan-2-ol] | 0.187 µM
3 | COc1cc2c(Oc3ccc(NC(=O)NCCC(C)(C)C)cc3Cl)ccnc2cc1OCCN1CC(C)OC(C)C1 (stereo not drawn) [Compound 127, 1-(3-Chloro-4-{7-[2-(2,6-dimethyl-morpholin-4-yl)-ethoxy]-6-methoxy-quinolin-4-yloxy}-phenyl)-3-(3,3-dimethyl-butyl)-urea] | 0.0094 µM
4 | COc1cc2nccc(Oc3ccc(NC(=O)NCCC(C)(C)C)cc3C)c2cc1OC [Compound 137, 1-[4-(6,7-Dimethoxy-quinolin-4-yloxy)-3-methyl-phenyl]-3-(3,3-dimethyl-butyl)-urea] | 0.0667 µM
5 | CCNCC(O)COc1cc2nccc(Oc3ccc(Nc4ccc(C(C)(C)C)cc4)cc3)c2cc1OC (stereo not drawn) [Compound 66, 1-{4-[4-(4-Tert-butylphenylamino)phenoxy]-6-methoxyquinolin-7-yloxy}-3-ethylaminopropan-2-ol] | 0.199 µM
6 | COc1cc2c(Oc3ccc(Nc4ccc(C(C)(C)C)cc4)cc3)ccnc2cc1OCCN1CCOCC1 [Compound 37, (4-Tert-butylphenyl)-{4-[6-methoxy-7-(2-morpholin-4-ylethoxy)quinolin-4-yloxy]phenyl}amine] | 0.345 µM
7 | COc1cc2c(Oc3ccc(NC(=O)NCCC(C)(C)C)cc3)ccnc2cc1OCCN1CCC(N2CCCC2)CC1 [Compound 124, 1-(3,3-Dimethyl-butyl)-3-(4-{6-methoxy-7-[2-(4-pyrrolidin-1-yl-piperidin-1-yl)-ethoxy]-quinolin-4-yloxy}-phenyl)-urea] | < 0.01 µM
8 | COc1cc2nccc(Oc3c(Cl)cc(NC(=O)NCCC(C)(C)C)cc3Cl)c2cc1OC [Compound 140, 1-[3,5-Dichloro-4-(6,7-dimethoxy-quinolin-4-yloxy)-phenyl]-3-(3,3-dimethyl-butyl)-urea] | 0.172 µM
9 | COc1cc2c(Oc3ccc(NC(=O)NCCC(C)(C)C)c(Cl)c3)ccnc2cc1OCCC1CCNCC1 [Compound 202, 1-{2-Chloro-4-[6-methoxy-7-(2-piperidin-4-yl-ethoxy)-quinolin-4-yloxy]-phenyl}-3-(3,3-dimethyl-butyl)-urea] | 0.0285 µM
10 | COc1cc2nccc(Oc3ccc(Nc4ccc(C(C)(C)C)cc4)cc3F)c2cc1OC [Compound 18, (4-Tert-butylphenyl)-[4-(6,7-dimethoxyquinolin-4-yloxy)-3-fluorophenyl]amine] | 0.155 µM
11 | COc1cc2c(Oc3ccc(NC(=O)NCCC(C)(C)C)c(Cl)c3)ccnc2cc1OCC(O)CN1CCOCC1 (stereo not drawn) [Compound 206, 1-{2-Chloro-4-[7-(2-hydroxy-3-morpholin-4-yl-propoxy)-6-methoxy-quinolin-4-yloxy]-phenyl}-3-(3,3-dimethyl-butyl)-urea] | 0.0185 µM
12 | COc1cc2c(Oc3ccc(NC(=O)NCCC(C)(C)C)cc3)ccnc2cc1OCCCN1C[C@@H](C)O[C@@H](C)C1 [Compound 200, 1-(3,3-Dimethyl-butyl)-3-(4-{7-[3-(2,6-dimethyl-morpholin-4-yl)-propoxy]-6-methoxy-quinolin-4-yloxy}-phenyl)-urea] | 0.0211 µM

Other lines, results leading:

Row | IC50 | SMILES
13 | 0.342 µM | COc1cc2c(Oc3ccc(Nc4ccc(C(C)(C)C)cc4)cc3)ccnc2cc1OCCN1CCC(N2CCCC2)CC1 [Compound 243, (4-Tert-butyl-phenyl)-(4-{6-methoxy-7-[2-(4-pyrrolidin-1-yl-piperidin-1-yl)-ethoxy]-quinolin-4-yloxy}-phenyl)-amine]
14 | 0.247 µM | COc1cc2nccc(Oc3ccc(NC(=O)NCCC(C)(C)C)cc3)c2cc1OCCCN1CCC(O)CC1 [Compound 322, 1-(3,3-Dimethyl-butyl)-3-(4-{6-[3-(4-hydroxy-piperidin-1-yl)-propoxy]-7-methoxy-quinolin-4-yloxy}-phenyl)-urea]
15 | 0.762 µM | COc1cc2c(Oc3ccc(NC(=O)NCCC(C)(C)C)cc3)ccnc2cc1OCC(=O)O [Compound 221, (4-{4-[3-(3,3-Dimethyl-butyl)-ureido]-phenoxy}-6-methoxy-quinolin-7-yloxy)-acetic acid]
16 | 0.0098 µM | CCN(CCO)CCCOc1cc2nccc(Oc3ccc(NC(=O)NCCC(C)(C)C)c(Cl)c3)c2cc1OC [Compound 345, 1-[2-Chloro-4-(7-{3-[ethyl-(2-hydroxy-ethyl)-amino]-propoxy}-6-methoxy-quinolin-4-yloxy)-phenyl]-3-(3,3-dimethyl-butyl)-urea]
17 | 0.103 µM | COc1cc2c(Oc3ccc(Nc4ccc(C(C)(C)C)cc4)cc3)ccnc2cc1OCCCN1CC(C)OC(C)C1 (stereo not drawn) [Compound 232, (4-Tert-butyl-phenyl)-(4-{7-[3-(2,6-dimethyl-morpholin-4-yl)-propoxy]-6-methoxy-quinolin-4-yloxy}-phenyl)-amine]
18 | 0.0116 µM | CCN(CCO)CCOc1cc2nccc(Oc3ccc(NC(=O)NCCC(C)(C)C)c(Cl)c3)c2cc1OC [Compound 342, 1-[2-Chloro-4-(7-{2-[ethyl-(2-hydroxy-ethyl)-amino]-ethoxy}-6-methoxy-quinolin-4-yloxy)-phenyl]-3-(3,3-dimethyl-butyl)-urea]
19 | 0.0183 µM | CCN(CCO)CCOc1cc2nccc(Oc3ccc(NC(=O)NCCC(C)(C)C)cc3)c2cc1OC [Compound 340, 1-(3,3-Dimethyl-butyl)-3-[4-(7-{2-[ethyl-(2-hydroxy-ethyl)-amino]-ethoxy}-6-methoxy-quinolin-4-yloxy)-phenyl]-urea]
20 | < 0.01 µM | COc1cc2c(Oc3ccc(NC(=O)NCCC(C)(C)C)c(Cl)c3)ccnc2cc1OCCO [Compound 211, 1-{2-Chloro-4-[7-(2-hydroxy-ethoxy)-6-methoxy-quinolin-4-yloxy]-phenyl}-3-(3,3-dimethyl-butyl)-urea]
21 | 0.0164 µM | COc1cc2c(Oc3ccc(NC(=O)NCCC(C)(C)C)cc3Cl)ccnc2cc1OCCCN1CCC(CO)CC1 [Compound 339, 1-(3-Chloro-4-{7-[3-(4-hydroxymethyl-piperidin-1-yl)-propoxy]-6-methoxy-quinolin-4-yloxy}-phenyl)-3-(3,3-dimethyl-butyl)-urea]
22 | 0.0165 µM | COc1cc2c(Oc3ccc(NC(=O)NCCC(C)(C)C)cc3)ccnc2cc1OCCCN1CC(C)CC(C)C1 (stereo not drawn) [Compound 245, 1-(3,3-Dimethyl-butyl)-3-(4-{7-[3-(3,5-dimethyl-piperidin-1-yl)-propoxy]-6-methoxy-quinolin-4-yloxy}-phenyl)-urea]
23 | 0.341 µM | COC(=O)COc1cc2nccc(Oc3ccc(NC(=O)NCCC(C)(C)C)cc3)c2cc1OC [Compound 215, Methyl (4-{4-[3-(3,3-dimethyl-butyl)-ureido]-phenoxy}-6-methoxy-quinolin-7-yloxy)-acetate]
24 | 0.232 µM | CCC(CO)(CO)NCCOc1cc2nccc(Oc3ccc(Nc4ccc(C(C)(C)C)cc4)cc3)c2cc1OC [Compound 351, 2-(2-{4-[4-(4-Tert-butyl-phenylamino)-phenoxy]-6-methoxy-quinolin-7-yloxy}-ethylamino)-2-ethyl-propan-1,3-diol]
